Measurements reported in patent US10724099B2, “Multiplex methods to assay mixed cell populations simultaneously” (The Broad Institute, Inc., priority 2012, dated 2020).

What was measured:
HCT-116 cells = test: Western blot phosphoserine 10-histone H3; type: cell-based; details: 10 μM
Description: Finally, HCT-116 cells were treated with 10 μM of DMSO, barasertib, GSK1070916, MLN8054, BRD-7880, or tozasertib. Cells lysates were probed on Western blot using antibodies (diluted 1:1000) to histone H3 (Abcam cat. no. 24834), phosphoserine 10-histone H3 (Cell Signaling Technology cat no. 3377SS), aurora kinase B (Millipore cat. no. 04-1036), or beta-actin (Santa Cruz Biotechnology cat. no. sc-47778) and detected using a LI-COR Odyssey analyzer.

[1] = molecular target: T1, ABL1(E255K)---phosphorylated (Homo sapiens, UniProt P00519, E255K); test: DiscoveRx KinomeScan binding; details: Entrez ABL1
T1 construct: purchased DiscoveRx (KINOMEscan scanEDGE panel)

ABL1---nonphosphorylated = molecular target: T2, ABL1---nonphosphorylated (Homo sapiens, UniProt P00519); test: DiscoveRx KinomeScan binding; details: Entrez ABL1
T2 construct: purchased DiscoveRx (KINOMEscan scanEDGE panel)

ABL1---phosphorylated = molecular target: T3, ABL1---phosphorylated (Homo sapiens, UniProt P00519); test: DiscoveRx KinomeScan binding; details: Entrez ABL1
T3 construct: purchased DiscoveRx (KINOMEscan scanEDGE panel)

ACVR1B = molecular target: T4, ACVR1B (Homo sapiens, UniProt P36896); test: DiscoveRx KinomeScan binding
T4 construct: purchased DiscoveRx (KINOMEscan scanEDGE panel)
T4 sequence (P36896 24-505): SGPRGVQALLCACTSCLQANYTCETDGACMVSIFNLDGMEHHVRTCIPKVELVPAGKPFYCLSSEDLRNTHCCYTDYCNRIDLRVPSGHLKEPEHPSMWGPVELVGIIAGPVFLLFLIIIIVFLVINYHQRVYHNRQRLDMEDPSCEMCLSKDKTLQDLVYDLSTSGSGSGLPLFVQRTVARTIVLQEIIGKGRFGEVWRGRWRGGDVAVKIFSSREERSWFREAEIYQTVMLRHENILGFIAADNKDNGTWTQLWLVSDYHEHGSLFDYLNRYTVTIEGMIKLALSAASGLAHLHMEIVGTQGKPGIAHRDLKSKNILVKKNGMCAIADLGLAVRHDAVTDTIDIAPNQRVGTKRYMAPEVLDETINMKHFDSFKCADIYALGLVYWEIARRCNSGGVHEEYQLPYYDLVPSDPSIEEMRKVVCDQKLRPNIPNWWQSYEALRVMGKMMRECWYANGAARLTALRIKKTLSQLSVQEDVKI

ADCK3 = molecular target: T5, ADCK3 (Homo sapiens, UniProt Q8NI60); test: DiscoveRx KinomeScan binding; details: Entrez CABC1
T5 construct: purchased DiscoveRx (KINOMEscan scanEDGE panel)
T5 sequence (Q8NI60 163-647): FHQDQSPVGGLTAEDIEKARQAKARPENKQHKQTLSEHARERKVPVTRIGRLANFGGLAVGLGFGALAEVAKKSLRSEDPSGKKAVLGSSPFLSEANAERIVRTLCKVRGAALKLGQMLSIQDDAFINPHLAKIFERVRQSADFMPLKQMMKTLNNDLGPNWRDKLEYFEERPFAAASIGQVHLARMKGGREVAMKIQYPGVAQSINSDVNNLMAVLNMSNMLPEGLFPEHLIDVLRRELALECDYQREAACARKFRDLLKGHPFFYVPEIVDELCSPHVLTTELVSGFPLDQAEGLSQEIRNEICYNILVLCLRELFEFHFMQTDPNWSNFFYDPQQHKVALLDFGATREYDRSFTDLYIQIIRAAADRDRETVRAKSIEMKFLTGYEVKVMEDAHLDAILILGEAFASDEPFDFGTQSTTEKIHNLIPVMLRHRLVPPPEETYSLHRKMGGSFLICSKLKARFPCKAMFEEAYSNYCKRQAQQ

ALK = molecular target: T6, ALK (Homo sapiens, UniProt Q9UM73); test: DiscoveRx KinomeScan binding
T6 construct: purchased DiscoveRx (KINOMEscan scanEDGE panel)

CDK11 = molecular target: T7, CDK11 (Homo sapiens, UniProt Q9BWU1); test: DiscoveRx KinomeScan binding; details: Entrez CDK19
T7 construct: purchased DiscoveRx (KINOMEscan scanEDGE panel)

CDK2 = molecular target: T8, CDK2 (Homo sapiens, UniProt P24941); test: DiscoveRx KinomeScan binding
T8 construct: purchased DiscoveRx (KINOMEscan scanEDGE panel)

CDK7 = molecular target: T9, CDK7 (Homo sapiens, UniProt P50613); test: DiscoveRx KinomeScan binding
T9 construct: purchased DiscoveRx (KINOMEscan scanEDGE panel)

CSNK1G2 = molecular target: T10, CSNK1G2 (Homo sapiens, UniProt P78368); test: DiscoveRx KinomeScan binding
T10 construct: purchased DiscoveRx scanEDGE panel

FAK = molecular target: T11, FAK (Homo sapiens, UniProt Q05397); test: DiscoveRx KinomeScan binding; details: Entrez PTK2
T11 construct: purchased DiscoveRx scanEDGE panel
T11 sequence (Q05397 whole entry): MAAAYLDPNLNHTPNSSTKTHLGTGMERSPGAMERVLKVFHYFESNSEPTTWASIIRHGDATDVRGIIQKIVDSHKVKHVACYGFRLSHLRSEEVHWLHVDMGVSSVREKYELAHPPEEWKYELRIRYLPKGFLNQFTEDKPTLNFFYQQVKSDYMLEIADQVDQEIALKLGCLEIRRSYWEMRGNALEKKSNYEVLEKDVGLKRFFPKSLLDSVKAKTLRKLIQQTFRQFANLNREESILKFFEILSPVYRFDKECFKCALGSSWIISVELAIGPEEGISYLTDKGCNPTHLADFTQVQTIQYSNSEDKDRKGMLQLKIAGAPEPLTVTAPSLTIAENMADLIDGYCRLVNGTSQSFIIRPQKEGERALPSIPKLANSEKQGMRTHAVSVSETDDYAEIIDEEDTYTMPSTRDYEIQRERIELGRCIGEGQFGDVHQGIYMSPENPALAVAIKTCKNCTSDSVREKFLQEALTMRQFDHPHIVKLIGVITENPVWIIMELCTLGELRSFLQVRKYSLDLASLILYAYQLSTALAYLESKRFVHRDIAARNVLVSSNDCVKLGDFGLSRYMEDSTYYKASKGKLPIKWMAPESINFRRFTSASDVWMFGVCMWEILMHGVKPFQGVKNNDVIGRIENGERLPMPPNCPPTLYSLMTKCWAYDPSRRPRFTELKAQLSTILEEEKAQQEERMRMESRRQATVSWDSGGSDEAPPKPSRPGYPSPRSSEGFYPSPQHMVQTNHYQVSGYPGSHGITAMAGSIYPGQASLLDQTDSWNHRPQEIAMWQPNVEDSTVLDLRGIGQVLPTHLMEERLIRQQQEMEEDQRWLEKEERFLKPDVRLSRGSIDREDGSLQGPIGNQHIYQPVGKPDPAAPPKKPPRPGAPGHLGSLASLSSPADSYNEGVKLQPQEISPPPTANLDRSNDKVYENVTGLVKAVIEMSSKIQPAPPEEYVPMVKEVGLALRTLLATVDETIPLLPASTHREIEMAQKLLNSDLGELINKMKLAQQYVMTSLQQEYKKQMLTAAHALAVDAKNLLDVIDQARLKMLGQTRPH

FGFR2 = molecular target: T12, FGFR2 (Homo sapiens, UniProt P21802); test: DiscoveRx KinomeScan binding
T12 construct: purchased DiscoveRx scanEDGE panel

FGFR3 = molecular target: T13, FGFR3 (Homo sapiens, UniProt P22607); test: DiscoveRx KinomeScan binding
T13 construct: purchased DiscoveRx scanEDGE panel

GSK3B = molecular target: T14, GSK3B (Homo sapiens, UniProt P49841); test: DiscoveRx KinomeScan binding
T14 construct: purchased DiscoveRx scanEDGE panel

IGF1R = molecular target: T15, IGF1R (Homo sapiens, UniProt P08069); test: DiscoveRx KinomeScan binding
T15 construct: purchased DiscoveRx scanEDGE panel

JNK3 = molecular target: T16, JNK3 (Homo sapiens, UniProt P53779); test: DiscoveRx KinomeScan binding; details: Entrez MAPK10
T16 construct: purchased DiscoveRx scanEDGE panel (KinomeScan)

MAP3K4 = molecular target: T17, MAP3K4 (Homo sapiens, UniProt Q9Y6R4); test: DiscoveRx KinomeScan binding
T17 construct: purchased DiscoveRx scanEDGE panel (KinomeScan)

MAPKAPK2 = molecular target: T18, MAPKAPK2 (Homo sapiens, UniProt P49137); test: DiscoveRx KinomeScan binding
T18 construct: purchased DiscoveRx scanEDGE panel (KinomeScan)

MEK1 = molecular target: T19, MEK1 (Homo sapiens, UniProt Q02750); test: DiscoveRx KinomeScan binding; details: Entrez MAP2K1
T19 construct: purchased DiscoveRx scanEDGE panel (KinomeScan)
T19 sequence (Q02750 whole entry): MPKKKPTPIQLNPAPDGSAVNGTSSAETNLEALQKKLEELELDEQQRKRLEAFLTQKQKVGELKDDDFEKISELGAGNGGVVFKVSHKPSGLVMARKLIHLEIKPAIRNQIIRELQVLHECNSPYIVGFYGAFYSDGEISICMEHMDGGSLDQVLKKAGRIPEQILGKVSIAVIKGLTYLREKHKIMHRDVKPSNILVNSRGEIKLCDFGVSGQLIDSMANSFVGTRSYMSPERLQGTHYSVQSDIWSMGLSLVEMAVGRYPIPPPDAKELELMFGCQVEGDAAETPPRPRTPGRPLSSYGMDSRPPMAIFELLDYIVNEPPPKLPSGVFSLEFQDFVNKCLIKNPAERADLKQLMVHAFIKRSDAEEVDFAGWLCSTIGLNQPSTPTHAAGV

MKNK1 = molecular target: T20, MKNK1 (Homo sapiens, UniProt Q9BUB5); test: DiscoveRx KinomeScan binding
T20 construct: purchased DiscoveRx scanEDGE panel (KinomeScan)

MKNK2 = molecular target: T21, MKNK2 (Homo sapiens, UniProt Q9HBH9); test: DiscoveRx KinomeScan binding
T21 construct: purchased DiscoveRx scanEDGE panel (KinomeScan)
T21 sequence (Q9HBH9 whole entry): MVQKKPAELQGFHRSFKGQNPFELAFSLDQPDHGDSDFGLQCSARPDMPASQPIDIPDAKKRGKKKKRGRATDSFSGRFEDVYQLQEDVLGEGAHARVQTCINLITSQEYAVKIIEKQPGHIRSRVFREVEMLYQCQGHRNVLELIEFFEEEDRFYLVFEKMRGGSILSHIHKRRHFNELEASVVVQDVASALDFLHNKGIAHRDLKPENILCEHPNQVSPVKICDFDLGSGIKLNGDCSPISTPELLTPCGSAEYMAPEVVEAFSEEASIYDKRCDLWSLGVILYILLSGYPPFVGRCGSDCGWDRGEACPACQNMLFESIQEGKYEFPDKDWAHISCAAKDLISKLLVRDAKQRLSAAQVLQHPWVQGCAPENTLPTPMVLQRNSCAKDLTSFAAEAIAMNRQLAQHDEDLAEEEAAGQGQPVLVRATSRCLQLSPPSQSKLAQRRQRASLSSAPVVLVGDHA

MLK1 = molecular target: T22, MLK1 (Homo sapiens, UniProt P80192); test: DiscoveRx KinomeScan binding; details: Entrez MAP3K9
T22 construct: purchased DiscoveRx scanEDGE panel (KinomeScan)

p38---alpha = molecular target: T23, p38---alpha (Homo sapiens, UniProt Q16539); test: DiscoveRx KinomeScan binding; details: Entrez MAPK14
T23 construct: purchased DiscoveRx scanEDGE panel (KinomeScan)

PAK1 = molecular target: T24, PAK1 (Homo sapiens, UniProt Q13153); test: DiscoveRx KinomeScan binding
T24 construct: purchased DiscoveRx scanEDGE panel (KinomeScan)
T24 sequence (Q13153 whole entry): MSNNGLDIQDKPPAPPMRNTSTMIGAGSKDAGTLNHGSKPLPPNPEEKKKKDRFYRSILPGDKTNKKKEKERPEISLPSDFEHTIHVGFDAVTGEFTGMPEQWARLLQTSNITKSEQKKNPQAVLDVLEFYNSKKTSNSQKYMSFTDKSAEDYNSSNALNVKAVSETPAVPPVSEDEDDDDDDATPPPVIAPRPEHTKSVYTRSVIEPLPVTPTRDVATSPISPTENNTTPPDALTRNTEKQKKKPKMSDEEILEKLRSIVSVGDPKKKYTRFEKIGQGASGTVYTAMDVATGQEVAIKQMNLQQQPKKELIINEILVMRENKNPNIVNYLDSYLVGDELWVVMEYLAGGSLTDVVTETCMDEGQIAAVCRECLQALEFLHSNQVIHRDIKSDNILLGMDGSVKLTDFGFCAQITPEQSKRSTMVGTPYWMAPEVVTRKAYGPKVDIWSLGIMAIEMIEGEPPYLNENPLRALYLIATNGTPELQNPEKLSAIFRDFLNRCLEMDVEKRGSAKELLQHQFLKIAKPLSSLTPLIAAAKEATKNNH

PAK2 = molecular target: T25, PAK2 (Homo sapiens, UniProt Q13177); test: DiscoveRx KinomeScan binding
T25 construct: purchased DiscoveRx scanEDGE panel (KinomeScan)
T25 sequence (Q13177 whole entry): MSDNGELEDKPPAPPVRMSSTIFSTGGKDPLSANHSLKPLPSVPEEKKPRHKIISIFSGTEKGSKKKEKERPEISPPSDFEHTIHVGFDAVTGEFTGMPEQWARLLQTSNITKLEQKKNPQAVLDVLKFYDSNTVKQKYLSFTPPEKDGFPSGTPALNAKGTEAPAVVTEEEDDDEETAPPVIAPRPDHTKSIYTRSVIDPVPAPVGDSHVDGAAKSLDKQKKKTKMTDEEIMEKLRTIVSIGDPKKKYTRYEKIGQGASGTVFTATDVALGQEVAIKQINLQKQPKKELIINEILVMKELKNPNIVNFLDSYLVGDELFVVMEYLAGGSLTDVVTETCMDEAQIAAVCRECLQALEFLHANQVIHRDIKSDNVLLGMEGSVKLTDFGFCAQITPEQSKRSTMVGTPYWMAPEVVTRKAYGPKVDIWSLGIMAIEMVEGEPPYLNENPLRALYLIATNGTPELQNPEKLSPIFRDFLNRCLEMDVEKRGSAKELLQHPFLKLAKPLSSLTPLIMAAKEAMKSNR

PDGFRA = molecular target: T26, PDGFRA (Homo sapiens, UniProt P16234); test: DiscoveRx KinomeScan binding
T26 construct: purchased DiscoveRx scanEDGE panel (KinomeScan)

PIM2 = molecular target: T27, PIM2 (Homo sapiens, UniProt Q9P1W9); test: DiscoveRx KinomeScan binding
T27 construct: purchased DiscoveRx scanEDGE panel
T27 sequence (Q9P1W9 whole entry): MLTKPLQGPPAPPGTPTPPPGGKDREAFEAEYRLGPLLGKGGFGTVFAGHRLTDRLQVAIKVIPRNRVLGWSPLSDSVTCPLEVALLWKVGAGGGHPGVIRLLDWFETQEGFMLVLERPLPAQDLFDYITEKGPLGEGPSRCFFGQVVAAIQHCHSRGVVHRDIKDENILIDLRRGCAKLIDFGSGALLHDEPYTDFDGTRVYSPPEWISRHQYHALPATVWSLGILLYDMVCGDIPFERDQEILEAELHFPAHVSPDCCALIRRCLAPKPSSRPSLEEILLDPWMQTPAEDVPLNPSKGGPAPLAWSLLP

PLK3 = molecular target: T28, PLK3 (Homo sapiens, UniProt Q9H4B4); test: DiscoveRx KinomeScan binding
T28 construct: purchased DiscoveRx scanEDGE panel

PLK4 = molecular target: T29, PLK4 (Homo sapiens, UniProt O00444); test: DiscoveRx KinomeScan binding
T29 construct: purchased DiscoveRx scanEDGE panel

PRKCE = molecular target: T30, PRKCE (Homo sapiens, UniProt Q02156); test: DiscoveRx KinomeScan binding
T30 construct: purchased DiscoveRx scanEDGE panel

RIOK2 = molecular target: T31, RIOK2 (Homo sapiens, UniProt Q9BVS4); test: DiscoveRx KinomeScan binding
T31 construct: purchased DiscoveRx scanEDGE panel

[2] = molecular target: T32, RSK2(Kin.Dom.1---N---terminal) (Homo sapiens, UniProt P51812); test: DiscoveRx KinomeScan binding; details: Entrez RPS6KA3
T32 construct: RSK2(Kin.Dom.1---N---terminal); purchased DiscoveRx scanEDGE panel

SNARK = molecular target: T33, SNARK (Homo sapiens, UniProt Q9H093); test: DiscoveRx KinomeScan binding; details: Entrez NUAK2
T33 construct: purchased DiscoveRx scanEDGE panel

SRC = molecular target: T34, SRC (Homo sapiens, UniProt P12931); test: DiscoveRx KinomeScan binding
T34 construct: purchased DiscoveRx scanEDGE panel

SRPK3 = molecular target: T35, SRPK3 (Homo sapiens, UniProt Q9UPE1); test: DiscoveRx KinomeScan binding
T35 construct: purchased DiscoveRx scanEDGE panel
T35 sequence (Q9UPE1 whole entry): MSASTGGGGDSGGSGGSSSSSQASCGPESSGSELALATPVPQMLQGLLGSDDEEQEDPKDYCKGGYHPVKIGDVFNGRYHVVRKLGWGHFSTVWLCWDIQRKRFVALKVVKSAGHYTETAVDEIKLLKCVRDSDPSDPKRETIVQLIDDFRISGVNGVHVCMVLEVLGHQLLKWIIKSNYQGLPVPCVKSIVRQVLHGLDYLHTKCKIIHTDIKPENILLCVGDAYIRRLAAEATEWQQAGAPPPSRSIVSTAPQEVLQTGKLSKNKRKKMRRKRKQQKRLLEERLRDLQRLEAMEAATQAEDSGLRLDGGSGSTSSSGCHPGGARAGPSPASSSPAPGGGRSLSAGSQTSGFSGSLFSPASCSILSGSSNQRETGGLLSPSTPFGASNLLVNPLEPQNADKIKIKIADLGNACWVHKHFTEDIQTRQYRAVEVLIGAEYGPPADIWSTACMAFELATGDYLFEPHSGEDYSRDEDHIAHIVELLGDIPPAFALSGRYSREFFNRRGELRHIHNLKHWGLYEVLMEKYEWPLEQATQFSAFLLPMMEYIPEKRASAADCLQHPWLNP

VEGFR2 = molecular target: T36, VEGFR2 (Homo sapiens, UniProt P35968); test: DiscoveRx KinomeScan binding; details: Entrez KDR
T36 construct: purchased DiscoveRx scanEDGE panel

ZAP70 = molecular target: T37, ZAP70 (Homo sapiens, UniProt P43403); test: DiscoveRx KinomeScan binding
T37 construct: purchased DiscoveRx (KinomeScan scanEDGE panel service)

COc1ccc(NC(=O)Nc2ccc3c(c2)C(=O)N([C@@H](C)CO)C[C@H](C)[C@H](CN(C)Cc2ccc4c(c2)OCO4)O3)cc1 [BRD-7880]
phosphorylation of serine 10 on histone H3 (HCT-116 cells): decrease phosphorylation of serine 10 on histone H3
Percent Control [1]: 80%
Percent Control (ABL1---nonphosphorylated): 100%
Percent Control (ABL1---phosphorylated): 88%
Percent Control (ACVR1B): 84%
Percent Control (ADCK3): 84%
Percent Control (ALK): 100%
Percent Control (CDK11): 43%
Percent Control (CDK2): 100%
Percent Control (CDK7): 77%
Percent Control (CSNK1G2): 100%
Percent Control (FAK): 100%
Percent Control (FGFR2): 77%
Percent Control (FGFR3): 56%
Percent Control (GSK3B): 94%
Percent Control (IGF1R): 88%
Percent Control (JNK3): 70%
Percent Control (MAP3K4): 86%
Percent Control (MAPKAPK2): 80%
Percent Control (MEK1): 71%
Percent Control (MKNK1): 87%
Percent Control (MKNK2): 77%
Percent Control (MLK1): 91%
Percent Control (p38---alpha): 93%
Percent Control (PAK1): 77%
Percent Control (PAK2): 69%
Percent Control (PDGFRA): 90%
Percent Control (PIM2): 85%
Percent Control (PLK3): 48%
Percent Control (PLK4): 61%
Percent Control (PRKCE): 100%
Percent Control (RIOK2): 38%
Percent Control [2]: 80%
Percent Control (SNARK): 72%
Percent Control (SRC): 81%
Percent Control (SRPK3): 100%
Percent Control (VEGFR2): 100%
Percent Control (ZAP70): 93%
